Results taken from ChEMBL document CHEMBL1201862, “PubChem BioAssay data set” (2004).
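Method: 48-hour compound exposure of cells in 96-well plates, five concentrations, linear interpolation of endpoints. Here, GI50 denotes the concentration required for 50% inhibition of growth.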 The source made the active and inactive calls. Rule as the data show it: active = GI50 up to about 1.1 µM and inactive = higher.

Tests used:
Assay in all cases: NCI anticancer screen, dose series, 48 h
IGROV-1 = test system: IGROV-1
TK-10 = test system: TK-10
SF-539 = test system: SF-539
DMS-273 = test system: DMS-273
HOP-62 = test system: HOP-62
A498 = test system: A498
786-0 = test system: 786-0
NCI-H226 = test system: NCI-H226
SN12C = test system: SN12C
A549 = test system: A549
M19-MEL = test system: M19-MEL
DLD-1 = test system: DLD-1
KM12 = test system: KM12
RXF 631 = test system: RXF 631
HCT-15 = test system: HCT-15
UO-31 = test system: UO-31
LXFL 529 = test system: LXFL 529
SK-MEL-5 = test system: SK-MEL-5
CCRF-CEM = test system: CCRF-CEM
UACC-257 = test system: UACC-257
EKVX = test system: EKVX
COLO 205 = test system: COLO 205
SNB-78 = test system: SNB-78
SR = test system: SR
SF-268 = test system: SF-268
M14 = test system: M14
MOLT-4 = test system: MOLT-4
HOP-92 = test system: HOP-92
NCI-H460 = test system: NCI-H460
OVCAR-5 = test system: OVCAR-5
LOX IMVI = test system: LOX IMVI
OVCAR-4 = test system: OVCAR-4
SW-620 = test system: SW-620
RPMI-8226 = test system: RPMI-8226
KM-20L2 = test system: KM-20L2
SF-295 = test system: SF-295
U-251 = test system: U-251
SNB-75 = test system: SNB-75
OVCAR-3 = test system: OVCAR-3
UACC-62 = test system: UACC-62
HT-29 = test system: HT-29
K562 = test system: K562
OVCAR-8 = test system: OVCAR-8
NCI-H522 = test system: NCI-H522
Malme-3M = test system: Malme-3M
XF498 = test system: XF498
DMS-114 = test system: DMS-114
SK-OV-3 = test system: SK-OV-3
RXF 393 = test system: RXF 393
HCT-116 = test system: HCT-116
HL-60 = test system: HL-60
SNB-19 = test system: SNB-19
NCI-H23 = test system: NCI-H23
CAKI-1 = test system: CAKI-1
HOP-18 = test system: HOP-18
ACHN = test system: ACHN
HCC 2998 = test system: HCC 2998

SMILES: c1ccc(N2N=NC3C4CC(C5c6ccccc6C45)C32)cc1 (configuration not stated)
- GI50 (IGROV-1): 56.8 µM (inactive)
- GI50 (TK-10): > 100 µM (inactive)
- GI50 (SF-539): 78.5 µM (inactive)
- GI50 (DMS-273): 47.1 µM (inactive)
- GI50 (HOP-62): 64.4 µM (inactive)
- GI50 (A498): 39.1 µM (inactive)
- GI50 (786-0): 59 µM (inactive)
- GI50 (NCI-H226): 37.8 µM (inactive)
- GI50 (SN12C): 33.6 µM (inactive)
- GI50 (A549): 33.8 µM (inactive)
- GI50 (M19-MEL): 22.7 µM (inactive)
- GI50 (DLD-1): 32.5 µM (inactive)
- GI50 (KM12): 39.3 µM (inactive)
- GI50 (RXF 631): 34.7 µM (inactive)
- GI50 (HCT-15): 31.3 µM
- GI50 (UO-31): 28.2 µM (inactive)
- GI50 (LXFL 529): 44 µM (inactive)
- GI50 (SK-MEL-5): 18.7 µM (inactive)
- GI50 (CCRF-CEM): 14 µM (inactive)
- GI50 (UACC-257): 24.2 µM (inactive)
- GI50 (EKVX): 37.4 µM (inactive)
- GI50 (COLO 205): 41.4 µM (inactive)
- GI50 (SNB-78): 43.4 µM (inactive)
- GI50 (SR): 20.2 µM (inactive)
- GI50 (SF-268): 34.8 µM (inactive)
- GI50 (M14): 54.1 µM (inactive)
- GI50 (MOLT-4): 17.1 µM (inactive)
- GI50 (HOP-92): 19.1 µM (inactive)
- GI50 (NCI-H460): 40.6 µM (inactive)
- GI50 (OVCAR-5): 44.6 µM (inactive)
- GI50 (LOX IMVI): 18.8 µM (inactive)
- GI50 (OVCAR-4): 27.3 µM (inactive)
- GI50 (SW-620): 36.6 µM (inactive)
- GI50 (RPMI-8226): 18.4 µM (inactive)
- GI50 (KM-20L2): 32.4 µM (inactive)
- GI50 (SF-295): 38.4 µM (inactive)
- GI50 (U-251): 32.5 µM (inactive)
- GI50 (SNB-75): 35.7 µM (inactive)
- GI50 (OVCAR-3): 26.6 µM (inactive)
- GI50 (UACC-62): 28.1 µM (inactive)
- GI50 (HT-29): 19.6 µM (inactive)
- GI50 (K562): 36.1 µM (inactive)
- GI50 (OVCAR-8): 57.7 µM (inactive)
- GI50 (NCI-H522): 20.5 µM (inactive)
- GI50 (Malme-3M): 20.8 µM (inactive)
- GI50 (XF498): 19.1 µM (inactive)
- GI50 (DMS-114): 19.9 µM (inactive)
- GI50 (SK-OV-3): 31.5 µM (inactive)
- GI50 (RXF 393): 15.4 µM (inactive)
- GI50 (HCT-116): 24.7 µM (inactive)
- GI50 (HL-60): 19.1 µM (inactive)
- GI50 (SNB-19): 69.5 µM (inactive)
- GI50 (NCI-H23): 24 µM (inactive)
- GI50 (CAKI-1): 31 µM (inactive)

SMILES: COC(=O)C(C(=O)C(=O)Nc1ccc(C)cc1C)c1csc(-n2nc(-c3ccccc3)cc2-c2ccccc2)n1 (configuration not stated)
- GI50 (IGROV-1): > 100 µM (inactive)
- GI50 (TK-10): > 100 µM (inactive)
- GI50 (DMS-273): > 100 µM (inactive)
- GI50 (HOP-62): > 100 µM (inactive)
- GI50 (A498): > 100 µM (inactive)
- GI50 (786-0): > 100 µM (inactive)
- GI50 (NCI-H226): 80.2 µM (inactive)
- GI50 (SN12C): > 100 µM (inactive)
- GI50 (A549): > 100 µM (inactive)
- GI50 (M19-MEL): > 100 µM (inactive)
- GI50 (DLD-1): > 100 µM (inactive)
- GI50 (KM12): 65.2 µM (inactive)
- GI50 (RXF 631): > 100 µM (inactive)
- GI50 (HCT-15): 52.1 µM
- GI50 (UO-31): 45.6 µM (inactive)
- GI50 (LXFL 529): > 100 µM (inactive)
- GI50 (CCRF-CEM): 83.2 µM (inactive)
- GI50 (UACC-257): > 100 µM (inactive)
- GI50 (EKVX): 73.3 µM (inactive)
- GI50 (COLO 205): > 100 µM (inactive)
- GI50 (SNB-78): > 100 µM (inactive)
- GI50 (SR): > 100 µM (inactive)
- GI50 (SF-268): 86.7 µM (inactive)
- GI50 (M14): > 100 µM (inactive)
- GI50 (MOLT-4): 22.5 µM (inactive)
- GI50 (HOP-92): > 100 µM (inactive)
- GI50 (HOP-18): 40.4 µM (inactive)
- GI50 (NCI-H460): > 100 µM (inactive)
- GI50 (ACHN): 53.5 µM (inactive)
- GI50 (OVCAR-5): 49.9 µM (inactive)
- GI50 (LOX IMVI): 80 µM (inactive)
- GI50 (OVCAR-4): 82.4 µM (inactive)
- GI50 (SW-620): > 100 µM (inactive)
- GI50 (KM-20L2): 57.5 µM (inactive)
- GI50 (U-251): 67.5 µM (inactive)
- GI50 (SNB-75): 6.37 µM (inactive)
- GI50 (OVCAR-3): 86.5 µM (inactive)
- GI50 (UACC-62): 61.7 µM (inactive)
- GI50 (HT-29): 31.4 µM (inactive)
- GI50 (K562): 93.5 µM (inactive)
- GI50 (OVCAR-8): > 100 µM (inactive)
- GI50 (HCC 2998): > 100 µM (inactive)
- GI50 (NCI-H522): > 100 µM (inactive)
- GI50 (Malme-3M): > 100 µM (inactive)
- GI50 (XF498): > 100 µM (inactive)
- GI50 (DMS-114): 23.8 µM (inactive)
- GI50 (SK-OV-3): > 100 µM (inactive)
- GI50 (RXF 393): 92 µM (inactive)
- GI50 (HCT-116): 58.1 µM (inactive)
- GI50 (HL-60): > 100 µM (inactive)
- GI50 (SNB-19): > 100 µM (inactive)
- GI50 (NCI-H23): > 100 µM (inactive)
- GI50 (CAKI-1): > 100 µM (inactive)
